Measurements: PMC8922279, “Identification of β-Lactams Active against Mycobacterium tuberculosis by a Consortium of Pharmaceutical Companies and Academic Institutions” (ACS Infectious Diseases, 2022)
Where two headings read alike, the source gives them in different places.

Tests used:
in vitro [1] = details: human, plasma, Plasma stability % Remaining
E. coli = experiment: Microbial spectrum, E. coli; assay type: cell-based, Escherichia coli; details: clavulanate 4 μg/mL; Table S4
in vivo [2] = details: female, CD-1, mouse
in vitro [3] = details: cynomolgus monkey, plasma, pH 7.4
in vitro [4] = details: human; for Papp A→B at 120 min, 3 μM / Papp B→A at 120 min, 3 μM: Caco-2, pH 7.4
in vitro [5] = details: CD-1, mouse, plasma, pH 7.4, % bound to plasma
Mtb H37Rv [6] = experiment: MIC90 against nonreplicating (NR, 4-stress) Mtb H37Rv, with or without clavulanate; assay type: cell-based, Mycobacterium tuberculosis; details: 4-stress nonreplicating, Table S4; for Mtb H37Rv NR + CLAV (MIC90): clavulanate 4 μg/mL; for Mtb H37Rv NR (MIC90): no clavulanate
in vitro [7] = details: SD, rat, plasma, pH 7.4, % bound to plasma
physchem [8] = details: simulated gi fluid, pH 1.2
Mtb H37Rv [9] = experiment: MIC90 against replicating (R) Mtb H37Rv, with or without clavulanate; assay type: cell-based, Mycobacterium tuberculosis; details: Table S4; for Mtb H37Rv R + CLAV (MIC90): clavulanate 4 μg/mL; for Mtb H37Rv R (MIC90): no clavulanate
[10] = uninfected DHP-1 mice
in vitro [11] = details: beagle, dog, plasma
in vitro [12] = details: monkey, plasma
in vitro [13] = details: SD, rat, plasma, Plasma stability % Remaining
in vivo [14] = details: female, 129sv DHP-1 knockout, mouse, sc, 50 mg/kg
HepG2 cells = experiment: Cytotoxicity against HepG2 cells (CellTiter-Glo); assay type: cell-based, human; details: Table S4
Description: Compounds were tested for cytotoxicity against HepG2 cells as previously described.[48],[69],[70] Briefly, cells were exposed to compounds for 48–72 h, and viability was measured using CellTiter-Glo (Promega).

physchem [15] = details: simulated gi fluid, pH 6.5, FaSSIF Stability, % remaining
in vitro [16] = details: male, CD-1, mouse, plasma, Plasma stability % Remaining
S. aureus = experiment: Microbial spectrum, S. aureus; assay type: cell-based, Staphylococcus aureus; details: clavulanate 4 μg/mL; Table S4
P. aeruginosa = experiment: Microbial spectrum, P. aeruginosa; assay type: cell-based, Pseudomonas aeruginosa; details: clavulanate 4 μg/mL; Table S4
in vivo [17] = details: DHP-1 knockout, mouse, sc
[18] = female, 129sv DHP-1 knockout, mouse, in vivo
in vitro [19] = details: beagle, dog, plasma, pH 7.4
in vitro [20] = details: human, plasma, pH 7.4, % bound to plasma
wild-type Mtb H37Rv = assay type: in vivo, 129sv DHP-1 knockout mice; details: 50 mg/kg sc bid + clavulanate 100 mg/kg po bid, days 9-15, lungs day 16; untreated day 16 mean 9.1
C. albicans = experiment: Microbial spectrum, C. albicans; assay type: cell-based, Candida albicans; details: no clavulanate; Table S4
[21] = Caco-2, pH 7.4, Caco-2 Mean Recovery % A to B
[22] = Caco-2, pH 7.4, Caco-2 Mean Recovery % B to A

## O=C(Cc1cccs1)N[C@@H]1C(=O)N2C(C(=O)O)=C(CSc3cccc[n+]3[O-])CS[C@H]12 [TBBL-0000001]
Caco-2 cells
  Caco-2 Rank Papp: Low
In vitro [1]
  remaining at 2 h, 2 μM: 77.3%
E. coli
  E.coli R + CLAV (MIC90): 26.9 µM
In vivo [2]; iv, 5 mg/kg
  AUC(0-t): 5590 ng·h/mL
  Vd: 0.32 L/kg
  clearance: 7.4 mL/min/kg
  half-life: 30 min
  k el: 0.000389 s⁻¹
In vivo [2]; po, 25 mg/kg
  AUC(0-t): 111 ng·h/mL
  bioavailability: 0.19%
In vitro [3]
  fraction unbound at 4 h, 2 μM: 0.166
In vitro [4]
  Papp A→B at 120 min, 3 μM: < 0.04 ×10⁻⁶ cm/s
  Papp B→A at 120 min, 3 μM: < 0.03 ×10⁻⁶ cm/s
In vitro [4]; [21]
  recovery at 120 min, 3 μM: < 93.1%
In vitro [4]; [22]
  recovery at 120 min, 3 μM: < 99.8%
In vitro [5]
  fraction unbound at 4 h, 2 μM: 0.374
Mtb H37Rv [6]
  Mtb H37Rv NR + CLAV (MIC90): 2.2 µM
  Mtb H37Rv NR (MIC90): 1.8 µM
In vitro [7]
  fraction unbound at 4 h, 2 μM: 0.369
Physchem [8]
  remaining at 1 h, 10 μM: 102%
  remaining at 24 h, 10 μM: 116%
Mtb H37Rv [9]
  Mtb H37Rv R + CLAV (MIC90): 1.7 µM
  Mtb H37Rv R (MIC90): 3 µM
[10]; 300 mg/kg sc
  Comments (tolerability): Recovered at t= 8h
  Tlast: 2.0 to 4.0 h
In vitro [11]
  remaining at 2 h, 2 μM: 54.7%
In vitro [12]
  remaining at 2 h, 2 μM: 117%
In vitro [13]
  remaining at 2 h, 2 μM: 80.6%
In vivo [14]
  AUC(0-t): 38100 ng·h/mL
  Cmax: 27800 ng/mL
  Tmax: 60 min
HepG2 cells
  HepG2 LD50: 67.5 µM
Physchem [15]
  remaining at 24 h, 10 μM: 114%
In vitro [16]
  remaining at 2 h, 2 μM: 79.6%
S. aureus
  S.aureus R + CLAV (MIC90): 0.6 µM
P. aeruginosa
  P.aeruginosa R + CLAV (MIC90): > 100 µM
In vivo [17]; 300 mg/kg
  AUC(0-t): 43000 ± 1680 ng·h/mL
  Cmax: 29800 ± 7140 ng/mL
  Tmax: 60 min
[18]
  Tlast: 3.0 h
In vitro [19]
  fraction unbound at 4 h, 2 μM: 0.529
In vitro [20]
  fraction unbound at 4 h, 2 μM: 0.22
wild-type Mtb H37Rv
  Log10 CFU per mouse (lungs), Mean: 8.8 Log10 CFU
C. albicans
  C.albicans R (MIC90): > 100 µM

## O=C(O)C1=C(CSc2cccc[n+]2[O-])CS[C@@H]2[C@H](NC(=O)/C(=N\Oc3ccccc3)c3ccco3)C(=O)N12 [TBBL-0000005]
Caco-2 cells
  Caco-2 Rank Papp: Low
In vitro [1]
  remaining at 2 h, 2 μM: 73.7%
E. coli
  E.coli R + CLAV (MIC90): > 100 µM
In vivo [2]; iv, 5 mg/kg
  AUC(0-t): 3330 ng·h/mL
  Vd: 0.23 L/kg
  clearance: 5 mL/min/kg
  half-life: 32.4 min
  k el: 0.000356 s⁻¹
In vivo [2]; po, 25 mg/kg
  AUC(0-t): 97 ng·h/mL
  bioavailability: 0.11%
In vitro [3]
  fraction unbound at 4 h, 2 μM: 0.06
In vitro [4]
  Papp A→B at 120 min, 3 μM: < 0.33 ×10⁻⁶ cm/s
  Papp B→A at 120 min, 3 μM: < 0.28 ×10⁻⁶ cm/s
In vitro [4]; [21]
  recovery at 120 min, 3 μM: < 88.9%
In vitro [4]; [22]
  recovery at 120 min, 3 μM: < 89.8%
In vitro [5]
  fraction unbound at 4 h, 2 μM: 0.06
Mtb H37Rv [6]
  Mtb H37Rv NR + CLAV (MIC90): 1.5 µM
  Mtb H37Rv NR (MIC90): 1.8 µM
In vitro [7]
  fraction unbound at 4 h, 2 μM: 0.121
Physchem [8]
  remaining at 1 h, 10 μM: 120%
  remaining at 24 h, 10 μM: 76.6%
Mtb H37Rv [9]
  Mtb H37Rv R + CLAV (MIC90): 2.7 µM
  Mtb H37Rv R (MIC90): 2.9 µM
[10]; 50 mg/kg sc
  Comments (tolerability): No side effects
  Tlast: 2.0 to 4.0 h
In vitro [11]
  remaining at 2 h, 2 μM: 51.3%
In vitro [12]
  remaining at 2 h, 2 μM: 108%
In vitro [13]
  remaining at 2 h, 2 μM: 35.2%
In vivo [14]
  AUC(0-t): 7920 ng·h/mL
  Cmax: 4130 ng/mL
  Tmax: 30 min
HepG2 cells
  HepG2 LD50: 88.7 µM
Physchem [15]; 6h
  remaining at 6 h, 10 μM: 98.7%
Physchem [15]
  remaining at 24 h, 10 μM: 98.5%
In vitro [16]
  remaining at 2 h, 2 μM: 60.6%
S. aureus
  S.aureus R + CLAV (MIC90): 0.8 µM
P. aeruginosa
  P.aeruginosa R + CLAV (MIC90): > 100 µM
In vivo [17]; 50 mg/kg
  AUC(0-t): 18200 ± 7180 ng·h/mL
  Cmax: 26600 ± 10000 ng/mL
  Tmax: 15 to 30 min
[18]
  Tlast: 6.0 h
In vitro [19]
  fraction unbound at 4 h, 2 μM: 0.186
In vitro [20]
  fraction unbound at 4 h, 2 μM: 0.129
wild-type Mtb H37Rv
  Log10 CFU per mouse (lungs), Mean: 8.9 Log10 CFU
C. albicans
  C.albicans R (MIC90): > 100 µM
